Data from US8247211B2, “Glycopeptide antibiotics” (American Cyanamid Company, priority 2001, dated 2012).
≈ marks a conversion by molar mass, not a printed value. Numbered stars: 1 amine (or outer) side, 2 acyl side, 3 side chain; on linkers, the order of the positions; unused ones are H or OH. Square brackets hold non-standard residues; d marks the D form. Peptide text beside a SMILES is read from it. ξ: configuration not given here. X1 = N=C1NCC(C(O)C(N[*:1])C(=O)[*:2])N1C1OC(CO)C(O)C(O)C1O; ξEnduracididine(βξ-OH,4'ξ) = N=C1NCC(C(O)C(N)C(=O)O)N1; Cha = N[CH](CC1CCCCC1)C(=O)O

Legend:
[1] = test system: Staphylococcus aureus-SMITH (GC 4543); assay: Acute lethal infection in mice (ED50); format: in vivo; settings: female CD-1 mice, intraperitoneal challenge, intravenous dose 30 min. after infection, 7 day survival ratios
Outline: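 Lethal systemic infection model: female CD-1 mice, 20 ± 1-2 g, intraperitoneal challenge. Single intravenous treatment 30 min after infection; 7-day survival, pooled from 3 tests, gives ED50.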

Escherichia coli = assay: In vitro antibacterial evaluation: minimum inhibitory concentration (MIC), broth dilution method; format: cell-based; settings: broth dilution, 18 hours at 35° C.
Staphylococcus sp. = assay: as above; format: cell-based; settings: broth dilution, 18 hours at 35° C.; for MIC Staphylococcus aureus-SMITH (GC 4543): strain SMITH GC 4543
Outline: (§1)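 Susceptibility determined by NCCLS-recommended broth dilution (M7-A2), Muller-Hinton II […]. Concentration span 64-0.06 μg/mL, inoculum 5×10^5 CFU/mL. Isolates include strains resistant to methicillin, penicillin and/or vancomycin.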

Streptococcus sp. = assay: as above; format: cell-based; settings: broth dilution, 18 hours at 35° C.
Outline: as §1

Enterococcus sp. = assay: as above; format: cell-based; settings: broth dilution, 18 hours at 35° C.
Outline: as §1

[2] = Anatomic pathology (heart and kidney histopathology) in mice; format: in vivo, CD-1 mice; settings: 20 mg/kg intravenously daily for 9 days, microscopic histopathology on day 10
Outline: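 Juvenile CD-1 mice (20 days old; 5 vehicle, 5 treated) received glycopeptide antibiotic 20 mg/kg i.v. daily for 9 days. Necropsied tissues formalin-fixed, paraffin-embedded, H&E stained and examined microscopically; findings graded slight to severe versus controls.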

[3] = Streptococcus agalactiae (GC 4564)
[4] = Streptococcus pneumoniae (ATCC 6301)
[5] = Streptococcus pneumoniae (GC 1894)
[6] = Streptococcus pneumoniae (GC 4565)
[7] = Streptococcus pyogenes (GC 4563)
[8] = Enterococcus faecalis (ATCC 29212)
[9] = Enterococcus faecalis (GC 2242)
[10] = Enterococcus faecalis (GC 2691)
[11] = Enterococcus faecalis (GC 3059)
[12] = Enterococcus faecalis (GC 4552)
[13] = Enterococcus faecalis (GC 4553)
[14] = Enterococcus faecalis (GC 4554)
[15] = Enterococcus faecalis (GC 6189)

SMILES: Cc1ccc(Oc2cccc(-c3nc4cc(CC5NC(=O)C(C(C)c6ccccc6)NC(=O)CNC(=O)C(CO)NC(=O)C(C(O)C6CNC(=N)N6C6OC(CO)C(O)C(O)C6O)NC(=O)C(C(O)C6CNC(=N)N6)NC5=O)ccc4o3)c2)cc1 (stereo not shown) [Example 28]
- median effective dose (ED50), Staphylococcus aureus-SMITH (GC 4543) [1]: 8 mg/kg
- MIC Escherichia coli (ATCC 25922) (Escherichia coli): 64 µg/mL (≈ 54.3 µM)
- MIC Escherichia coli (GC 4559) (Escherichia coli): 64 µg/mL (≈ 54.3 µM)
- MIC Escherichia coli (GC 4560) (Escherichia coli): 8 µg/mL (≈ 6.79 µM)
- MIC Staphylococcus aureus-SMITH (GC 4543) (Staphylococcus sp.): 4 µg/mL (≈ 3.39 µM)
- MIC Streptococcus agalactiae (GC 4564) (Streptococcus sp.; [3]): 4 µg/mL (≈ 3.39 µM)
- MIC Streptococcus pneumoniae (ATCC 6301) (Streptococcus sp.; [4]): 4 µg/mL (≈ 3.39 µM)
- MIC Streptococcus pneumoniae (GC 1894) (Streptococcus sp.; [5]): 4 µg/mL (≈ 3.39 µM)
- MIC Streptococcus pneumoniae (GC 4565) (Streptococcus sp.; [6]): 4 µg/mL (≈ 3.39 µM)
- MIC Streptococcus pyogenes (GC 4563) (Streptococcus sp.; [7]): 1 µg/mL (≈ 0.849 µM)
- MIC Streptococcus agalactiae (GC 4564) (Streptococcus sp.): 4 µg/mL (≈ 3.39 µM)
- MIC Streptococcus pneumoniae (ATCC 6301) (Streptococcus sp.): 4 µg/mL (≈ 3.39 µM)
- MIC Streptococcus pneumoniae (GC 1894) (Streptococcus sp.): 4 µg/mL (≈ 3.39 µM)
- MIC Streptococcus pneumoniae (GC 4565) (Streptococcus sp.): 4 µg/mL (≈ 3.39 µM)
- MIC Streptococcus pyogenes (GC 4563) (Streptococcus sp.): 1 µg/mL (≈ 0.849 µM)
- MIC Enterococcus avium (GC 4558) (Enterococcus sp.; Enterococcus avium (GC 4558)): 4 µg/mL (≈ 3.39 µM)
- MIC Enterococcus faecalis (ATCC 29212) (Enterococcus sp.; [8]): 8 µg/mL (≈ 6.79 µM)
- MIC Enterococcus faecalis (GC 2242) (Enterococcus sp.; [9]): 4 µg/mL (≈ 3.39 µM)
- MIC Enterococcus faecalis (GC 2691) (Enterococcus sp.; [10]): 8 µg/mL (≈ 6.79 µM)
- MIC Enterococcus faecalis (GC 3059) (Enterococcus sp.; [11]): 8 µg/mL (≈ 6.79 µM)
- MIC Enterococcus faecalis (GC 4552) (Enterococcus sp.; [12]): 8 µg/mL (≈ 6.79 µM)
- MIC Enterococcus faecalis (GC 4553) (Enterococcus sp.; [13]): 4 µg/mL (≈ 3.39 µM)
- MIC Enterococcus faecalis (GC 4554) (Enterococcus sp.; [14]): 8 µg/mL (≈ 6.79 µM)
- MIC Enterococcus faecalis (GC 6189) (Enterococcus sp.; [15]): 8 µg/mL (≈ 6.79 µM)
- MIC Enterococcus faecium (GC 2243) (Enterococcus sp.; Enterococcus faecium (GC 2243)): 8 µg/mL (≈ 6.79 µM)
- MIC Enterococcus faecium (GC 4556) (Enterococcus sp.; Enterococcus faecium (GC 4556)): 8 µg/mL (≈ 6.79 µM)
- MIC Enterococcus faecium (GC 4557) (Enterococcus sp.; Enterococcus faecium (GC 4557)): 4 µg/mL (≈ 3.39 µM)
- MIC Enterococcus avium (GC 4558) (Enterococcus sp.): 4 µg/mL (≈ 3.39 µM)
- MIC Enterococcus faecalis (ATCC 29212) (Enterococcus sp.): 8 µg/mL (≈ 6.79 µM)
- MIC Enterococcus faecalis (GC 2242) (Enterococcus sp.): 4 µg/mL (≈ 3.39 µM)
- MIC Enterococcus faecalis (GC 2691) (Enterococcus sp.): 8 µg/mL (≈ 6.79 µM)
- MIC Enterococcus faecalis (GC 3059) (Enterococcus sp.): 8 µg/mL (≈ 6.79 µM)
- MIC Enterococcus faecalis (GC 4552) (Enterococcus sp.): 8 µg/mL (≈ 6.79 µM)
- MIC Enterococcus faecalis (GC 4553) (Enterococcus sp.): 4 µg/mL (≈ 3.39 µM)
- MIC Enterococcus faecalis (GC 4554) (Enterococcus sp.): 8 µg/mL (≈ 6.79 µM)
- MIC Enterococcus faecalis (GC 6189) (Enterococcus sp.): 8 µg/mL (≈ 6.79 µM)
- MIC Enterococcus faecium (GC 2243) (Enterococcus sp.): 8 µg/mL (≈ 6.79 µM)
- MIC Enterococcus faecium (GC 4556) (Enterococcus sp.): 8 µg/mL (≈ 6.79 µM)
- MIC Enterococcus faecium (GC 4557) (Enterococcus sp.): 4 µg/mL (≈ 3.39 µM)
- Anatomical Pathology (Day 10), Heart [2]: 0
- Anatomical Pathology (Day 10), Kidney [2]: 0

SMILES: N=C1NCC(C(O)C2NC(=O)C(CC3CCCCC3)NC(=O)C(CC3CCCCC3)NC(=O)CNC(=O)C(CO)NC(=O)C(C(O)C3CNC(=N)N3C3OC(CO)C(O)C(O)C3O)NC2=O)N1 (stereo not drawn) [Example 52, Cyclo[3-cyclohexylalanyl-3-cyclohexylalanyl-3-(2-iminoimidazolidin-4-yl)seryl-3-(3-hexopyranosyl-2-iminoimidazolidin-4-yl)serylserylglycyl]] (cyclo(G[Cha][Cha][ξEnduracididine(βξ-OH,4'ξ)][X1]S); configuration not given here)
- median effective dose (ED50), Staphylococcus aureus-SMITH (GC 4543) [1]: >4
- MIC Escherichia coli (ATCC 25922) (Escherichia coli): 64 µg/mL (≈ 67.2 µM)
- MIC Escherichia coli (GC 4559) (Escherichia coli): 64 µg/mL (≈ 67.2 µM)
- MIC Escherichia coli (GC 4560) (Escherichia coli): 16 µg/mL (≈ 16.8 µM)
- MIC Coagulase Negative Staphylococcus (GC 4547) (Staphylococcus sp.): 8 µg/mL (≈ 8.39 µM)
- MIC Coagulase Negative Staphylococcus (GC 4548) (Staphylococcus sp.): 8 µg/mL (≈ 8.39 µM)
- MIC Coagulase Negative Staphylococcus (GC 4549) (Staphylococcus sp.): 4 µg/mL (≈ 4.2 µM)
- MIC Coagulase Negative Staphylococcus (GC 4551) (Staphylococcus sp.): 8 µg/mL (≈ 8.39 µM)
- MIC Staphylococcus aureus SMITH (GC 4543) (Staphylococcus sp.): 16 µg/mL (≈ 16.8 µM)
- MIC Staphylococcus haemolyticus (GC 4546) (Staphylococcus sp.): 4 µg/mL (≈ 4.2 µM)
- MIC Staphylococcus aureus-SMITH (GC 4543) (Staphylococcus sp.): 16 µg/mL (≈ 16.8 µM)
- MIC Streptococcus agalactiae (GC 4564) (Streptococcus sp.; [3]): 8 µg/mL (≈ 8.39 µM)
- MIC Streptococcus pneumoniae (ATCC 6301) (Streptococcus sp.; [4]): 8 µg/mL (≈ 8.39 µM)
- MIC Streptococcus pneumoniae (GC 1894) (Streptococcus sp.; [5]): 8 µg/mL (≈ 8.39 µM)
- MIC Streptococcus pneumoniae (GC 4565) (Streptococcus sp.; [6]): 16 µg/mL (≈ 16.8 µM)
- MIC Streptococcus pyogenes (GC 4563) (Streptococcus sp.; [7]): 8 µg/mL (≈ 8.39 µM)
- MIC Streptococcus agalactiae (GC 4564) (Streptococcus sp.): 8 µg/mL (≈ 8.39 µM)
- MIC Streptococcus pneumoniae (ATCC 6301) (Streptococcus sp.): 8 µg/mL (≈ 8.39 µM)
- MIC Streptococcus pneumoniae (GC 1894) (Streptococcus sp.): 8 µg/mL (≈ 8.39 µM)
- MIC Streptococcus pneumoniae (GC 4565) (Streptococcus sp.): 16 µg/mL (≈ 16.8 µM)
- MIC Streptococcus pyogenes (GC 4563) (Streptococcus sp.): 8 µg/mL (≈ 8.39 µM)
- MIC Enterococcus avium (GC 4558) (Enterococcus sp.; Enterococcus avium (GC 4558)): 32 µg/mL (≈ 33.6 µM)
- MIC Enterococcus faecalis (ATCC 29212) (Enterococcus sp.; [8]): 64 µg/mL (≈ 67.2 µM)
- MIC Enterococcus faecalis (GC 2242) (Enterococcus sp.; [9]): 32 µg/mL (≈ 33.6 µM)
- MIC Enterococcus faecalis (GC 2691) (Enterococcus sp.; [10]): 32 µg/mL (≈ 33.6 µM)
- MIC Enterococcus faecalis (GC 3059) (Enterococcus sp.; [11]): 32 µg/mL (≈ 33.6 µM)
- MIC Enterococcus faecalis (GC 4552) (Enterococcus sp.; [12]): 32 µg/mL (≈ 33.6 µM)
- MIC Enterococcus faecalis (GC 4553) (Enterococcus sp.; [13]): 16 µg/mL (≈ 16.8 µM)
- MIC Enterococcus faecalis (GC 4554) (Enterococcus sp.; [14]): 64 µg/mL (≈ 67.2 µM)
- MIC Enterococcus faecalis (GC 6189) (Enterococcus sp.; [15]): 32 µg/mL (≈ 33.6 µM)
- MIC Enterococcus faecium (GC 2243) (Enterococcus sp.; Enterococcus faecium (GC 2243)): 16 µg/mL (≈ 16.8 µM)
- MIC Enterococcus faecium (GC 4556) (Enterococcus sp.; Enterococcus faecium (GC 4556)): 32 µg/mL (≈ 33.6 µM)
- MIC Enterococcus faecium (GC 4557) (Enterococcus sp.; Enterococcus faecium (GC 4557)): 8 µg/mL (≈ 8.39 µM)
- MIC Enterococcus avium (GC 4558) (Enterococcus sp.): 32 µg/mL (≈ 33.6 µM)
- MIC Enterococcus faecalis (ATCC 29212) (Enterococcus sp.): 64 µg/mL (≈ 67.2 µM)
- MIC Enterococcus faecalis (GC 2242) (Enterococcus sp.): 32 µg/mL (≈ 33.6 µM)
- MIC Enterococcus faecalis (GC 2691) (Enterococcus sp.): 32 µg/mL (≈ 33.6 µM)
- MIC Enterococcus faecalis (GC 3059) (Enterococcus sp.): 32 µg/mL (≈ 33.6 µM)
- MIC Enterococcus faecalis (GC 4552) (Enterococcus sp.): 32 µg/mL (≈ 33.6 µM)
- MIC Enterococcus faecalis (GC 4553) (Enterococcus sp.): 16 µg/mL (≈ 16.8 µM)
- MIC Enterococcus faecalis (GC 4554) (Enterococcus sp.): 64 µg/mL (≈ 67.2 µM)
- MIC Enterococcus faecalis (GC 6189) (Enterococcus sp.): 32 µg/mL (≈ 33.6 µM)
- MIC Enterococcus faecium (GC 2243) (Enterococcus sp.): 16 µg/mL (≈ 16.8 µM)
- MIC Enterococcus faecium (GC 4556) (Enterococcus sp.): 32 µg/mL (≈ 33.6 µM)
- MIC Enterococcus faecium (GC 4557) (Enterococcus sp.): 8 µg/mL (≈ 8.39 µM)
- Anatomical Pathology (Day 10), Heart [2]: 0
- Anatomical Pathology (Day 10), Kidney [2]: +++
